IC50 and Imax data for five compounds are collected here from ChEMBL document CHEMBL2203091, “Synthesis of novel МТ3 receptor ligands via an unusual Knoevenagel condensation” (Bioorg Med Chem Lett, 2012).

Assay [1] concerns the target T1, Ribosyldihydronicotinamide dehydrogenase [quinone] (Homo sapiens, UniProt P16083).
T1 sequence (P16083 whole entry): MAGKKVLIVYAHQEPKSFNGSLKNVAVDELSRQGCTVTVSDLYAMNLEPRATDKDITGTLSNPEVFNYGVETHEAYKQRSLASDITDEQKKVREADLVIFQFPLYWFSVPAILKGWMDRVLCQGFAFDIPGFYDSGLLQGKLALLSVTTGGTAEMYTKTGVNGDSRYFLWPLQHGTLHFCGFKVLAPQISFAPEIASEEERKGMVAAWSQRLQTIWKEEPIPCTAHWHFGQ
Briefly: Binding affinity to […] reductase 2 using MTT and NMeH as substrates.

The target in assay [2] is T2, Ribosyldihydronicotinamide dehydrogenase [quinone] (Homo sapiens) (UniProt P16083).
T2 sequence (whole entry): T1 sequence (P16083 whole entry)
Briefly: Inhibition of […] reductase 2 using MTT and NMeH as substrates.

Assay [3] concerns the target T2, Ribosyldihydronicotinamide dehydrogenase [quinone] (Homo sapiens). Particulars: 0.5 to 50 uM.
Description: Inhibition of human recombinant quinine reductase 2 expressed in Escherichia coli BL21 (DE3) using menadione and NMeH as substrates at 0.5 to 50 uM

With `CC(=O)NCCC1(O)C(=O)Nc2ccc(NC(C)=O)cc21` (stereo not given), the IC50 – broadly, the concentration that inhibits the measured activity by half – in assay [1] was determined as 0.2 µM. Further, in assay [2], the Imax was determined as 36.3%.

On to `CC(=O)Nc1ccc2c(c1)C(CC#N)C(=O)N2` (stereo not given), for which, in assay [1], the IC50 was 14.1 µM. In assay [2], the Imax is 100%.

As to `COc1ccc2[nH]cc(CCNC(C)=O)c2c1`, the Imax in assay [3] turned out to be 75%; in assay [2], 85.2%.

`CC(=O)NCCC1C(=O)Nc2ccc(NC(C)=O)cc21` (stereo not given): the IC50 in assay [1] is 20.7 µM. Besides, the Imax in assay [2] came out at 81.7%.

Consider `CC(=O)Nc1ccc2c(c1)C(CC#N)C(=O)N2C` (stereo not given), for which the concentration for half-maximal inhibition (IC50) in assay [1] was 7 µM. The same compound yielded an Imax in assay [2] of 99.2%.
